Measurements reported in PubChem BioAssay AID1845212 (Molecular Pharmacology Branch, DTP, NCI, 2023).

Tested on: NCI-H719 tumor spheroids, viability
Assay: Anticancer human tumor NCI-H719 cell line growth inhibition;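 also: spheroids exposed to compounds for seven days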;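 as to viability, T/C: percent viability relative to DMSO vehicle control as 100%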
Details: spheroids with HUVEC and MSC; for IC50: curve of first compound; for viability, T/C: stronger effect = lower value
Method in brief: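 Complex spheroids of malignant cells with endothelial cells and mesenchymal stem cells; agents alone or combined, from near clinical Cmax (or 10 microM if unknown) down in half-log steps, 0.25% DMSO final.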

In the case of COc1ccc([C@@H](O)c2cc(-c3ncnc4cc(N5CCOCC5)ccc34)c(F)cc2Cl)nn1 + COc1cc2c(cc1O)CCNC21CSC2c3c(OC(C)=O)c(C)c4c(c3C(COC1=O)N1C(O)C3Cc5cc(C)c(OC)c(O)c5C(C21)N3C)OCO4, the IC50 (second compound 30 pM) is reported as 1110 nM, the IC50 (second compound 94.9 pM) is reported as < 31.6 nM and the IC50 (second compound 0.0003 µM) is reported as < 31.6 nM. For the same compound, the IC50 (second compound 0.000949 µM) was < 31.6 nM, the IC50 (second compound 0.003 µM) was < 31.6 nM and the viability, T/C (second compound 30 pM, first compound 0.0316 µM) was 81.5%. For the same compound, the viability, T/C (second compound 30 pM, first compound 0.1 µM) was 100%, the viability, T/C (second compound 30 pM, first compound 0.316 µM) was 75.2% and the viability, T/C (second compound 30 pM, first compound 1 µM) was 52.4%. The viability, T/C (second compound 30 pM, first compound 3.16 µM) was 22%, the viability, T/C (second compound 30 pM, first compound 10 µM) was 3.59% and the viability, T/C (second compound 94.9 pM, first compound 0.0316 µM) was 49.7%. The viability, T/C (second compound 94.9 pM, first compound 0.1 µM) was 25.2%, the viability, T/C (second compound 94.9 pM, first compound 0.316 µM) was 44% and the viability, T/C (second compound 94.9 pM, first compound 1 µM) was 27.7%. The viability, T/C (second compound 94.9 pM, first compound 3.16 µM) was 8.27%, the viability, T/C (second compound 94.9 pM, first compound 10 µM) was 3% and the viability, T/C (second compound 0.0003 µM, first compound 0.0316 µM) was 13.6%. For the same compound, the viability, T/C (second compound 0.0003 µM, first compound 0.1 µM) was 8.22%, the viability, T/C (second compound 0.0003 µM, first compound 0.316 µM) was 10.1% and the viability, T/C (second compound 0.0003 µM, first compound 1 µM) was 6.05%. The viability, T/C (second compound 0.0003 µM, first compound 3.16 µM) was 3.35%, the viability, T/C (second compound 0.0003 µM, first compound 10 µM) was 1.11% and the viability, T/C (second compound 0.000949 µM, first compound 0.0316 µM) was 8.53%. It also gave a viability, T/C (second compound 0.000949 µM, first compound 0.1 µM) of 8.3%, a viability, T/C (second compound 0.000949 µM, first compound 0.316 µM) of 7.46% and a viability, T/C (second compound 0.000949 µM, first compound 1 µM) of 4.41%. It also gave a viability, T/C (second compound 0.000949 µM, first compound 3.16 µM) of 1.46%, a viability, T/C (second compound 0.000949 µM, first compound 10 µM) of 0.7% and a viability, T/C (second compound 0.003 µM, first compound 0.0316 µM) of 0.57%. The viability, T/C (second compound 0.003 µM, first compound 0.1 µM) was 0.58%, the viability, T/C (second compound 0.003 µM, first compound 0.316 µM) was 0.46% and the viability, T/C (second compound 0.003 µM, first compound 1 µM) was 0.68%. For the same compound, the viability, T/C (second compound 0.003 µM, first compound 3.16 µM) was 0.54% and the viability, T/C (second compound 0.003 µM, first compound 10 µM) was 0.45%.
